From PubChem BioAssay (NCI) come the findings set out here.

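Each compound was tested at five concentrations against cells in 96-well plates for 48 hours. At the TGI there is no net growth.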 Bounds are passed on as bounds.

Holding throughout (assay): DTP human tumour cell line panel, 48 h
Assay [1] relates to 786-0 renal.
The test system of assay [2] is CCRF-CEM leukemia.
Assay [3] concerns COLO 205 colon.
Assay [4] concerns EKVX NSCLC.
Assay [5] deals with LOX IMVI melanoma.
Assay [6] has as its system NCI-H226 lung.
The test system of assay [7] is NCI-H460 lung.
For assay [8], the system named is NCI/ADR-RES ovarian.
Assay [9] deals with OVCAR-3 ovarian.
Assay [10] deals with OVCAR-4 ovarian.
Assay [11] relates to OVCAR-5 ovarian.
In assay [12] the test system is UACC-62 melanoma.

`O=CN1CCN(C(=O)c2ccc(Cl)c(Cl)c2)C1=S`: the TGI came out at 17.6 µM in assay [1]; 24.2 µM in assay [2]; 37.8 µM in [3]; 31.7 µM in assay [4]; 25.9 µM in assay [5]; 39.8 µM in [6]. The concentration for total growth inhibition (TGI) is 36.2 µM in [7]; greater than 100 µM in [8]; 28.3 µM in assay [9]; 33.6 µM in assay [10]; 32.4 µM in assay [11]; 30.4 µM in assay [12].
For the molecule `O=[N+]([O-])c1ccc(NNN=Nc2ccc(-c3nc4ccccc4s3)cc2)c([N+](=O)[O-])c1`, the TGI in assay [1] was 50.6 µM; in assay [2] it was greater than 100 µM; in assay [3], 31.5 µM; in assay [4] it was 44.4 µM; in [5], 32.7 µM; in assay [6], 69.4 µM. Also, the TGI in assay [7] was 56.3 µM; in [8] it was 81.5 µM; in assay [9], 46.7 µM; in [10] it was greater than 100 µM; in assay [11] it was 71.5 µM; in assay [12], 27.7 µM.
Take `CNc1nc(C(N)=O)c(N)s1`: the TGI in [1], in [2], in assay [3], in assay [4], in assay [5] and in [6] was greater than 100 µM each time. Further, the total growth inhibition concentration (TGI) in assay [7], in [8], in assay [9], in assay [10], in [11] and in [12] was greater than 100 µM in each case.
For the molecule `CSc1nc2c(c(=O)[nH]1)N=C(c1ccccc1)CC(c1ccccc1)N2` (stereo not drawn), the TGI in assay [1], in assay [2], in assay [3], in [4], in assay [5] and in assay [6] was greater than 100 µM each time. Moreover, the TGI in assay [7] was 27.2 µM; in assay [8], greater than 100 µM; in assay [9], greater than 100 µM; in assay [10], 95.2 µM; in [11], greater than 100 µM; in [12], 57.1 µM.
In the case of `CC1=C(C(=O)N[C@@H](CC(C)C)C(=O)O)N2C(=O)[C@@H](NC(=O)C(N)c3ccccc3)[C@H]2SC1` (stereo partly drawn), the TGI in [1], in assay [2], in assay [3], in assay [4], in [5] and in assay [6] was greater than 100 µM throughout. In addition, the TGI in assay [7], in assay [8], in assay [9], in [10], in [11] and in assay [12] was greater than 100 µM throughout.
On to `CC(C)N(C(C)C)S(=O)(=O)C[C@]12CC[C@H](CC13OCC(CS(=O)(=O)c1ccccc1)O3)C2(C)C` (stereo partly drawn), for which the TGI is greater than 100 µM in assay [1]; greater than 100 µM in [2]; 34.8 µM in assay [3]; greater than 100 µM in [4]; greater than 100 µM in assay [5]; greater than 100 µM in assay [6]. In addition, the total growth inhibition concentration (TGI) in assay [7] was greater than 100 µM; in assay [8], greater than 100 µM; in assay [9] it was greater than 70.8 µM; in [10] it was greater than 100 µM; in assay [11] it was greater than 100 µM; in assay [12], greater than 100 µM.
As for `Cc1cnc2sn(-c3ccc(Br)cc3)c(=O)c2c1`, the TGI was greater than 100 µM in [1]; 69.7 µM in [2]; 49.3 µM in [3]; greater than 100 µM in [4]; greater than 100 µM in assay [5]; greater than 100 µM in assay [6]. For the same molecule, the TGI in assay [7] is greater than 100 µM; in assay [8], greater than 100 µM; in assay [9] it was 62.7 µM; in assay [10], 79.3 µM; in assay [11], greater than 100 µM; in assay [12], greater than 100 µM.
Turning to `COC(=O)CCC(NC(=O)OC(C)(C)C)C(=O)NC(Cc1ccc(NC(=O)CCCC(C)=O)cc1)C(=O)NC(CCC(=O)OC)C(=O)OC` (stereo not drawn), the TGI in [1], in assay [2], in [3], in [4], in assay [5] and in assay [6] was greater than 100 µM in each case. The TGI in assay [7], in [8], in [9], in assay [10], in [11] and in assay [12] was greater than 100 µM in each case.
`CCOC(=O)NN(C(=O)OCC)c1c(C)cc(C)cc1C`: the TGI in [1], in [2], in [3], in assay [4], in [5] and in assay [6] was greater than 100 µM each time. In addition, the TGI in [7], in assay [8], in assay [9], in assay [10], in assay [11] and in [12] was greater than 100 µM throughout.

Broadly, the TGI is the concentration giving total growth inhibition. A lower TGI goes with greater sensitivity of the cells.
